The results in this text go back to PMC4222822, “Discovery and Characterization of a Potent and Selective Inhibitor of Aedes aegypti Inward Rectifier Potassium Channels” (PLoS ONE, 2014).

One assay concerns the target AeKir1 (Aedes aegypti, UniProt L0EQS9). The experiment in a line: Whole-cell patch clamp electrophysiology of T-REx-HEK293-AeKir1 cells. The format is cell-based. As for the experimental part:
T-REx-HEK293-AeKir1 cells were voltage clamped in the whole-cell configuration of the patch clamp technique after overnight induction with tetracycline (1 µg/ml) essentially as described earlier. Briefly, patch electrodes were pulled from silanized 1.5 mm outer diameter borosilicate microhematocrit tubes using a Narishige PC-10 two-stage puller. Electrode resistance ranged from 3.5 to 5.5 MΩ when filled with the following intracellular solution (in mM): 135 KCl, 2 MgCl2, 1 EGTA, 10 HEPES free acid, 2 Na2ATP (Roche, Indianapolis, IN), pH 7.3, 275 mOsm. The standard bath solution contained (in mM): 135 NaCl, 5 KCl, 2 CaCl2, 1 MgCl2, 5 glucose, 10 HEPES free acid, pH 7.4, 290 mOsm. Whole-cell currents were recorded under voltage-clamp conditions using an Axopatch 200B amplifier (Molecular Devices, Sunnyvale, CA). Electrical connections to the amplifier were made using Ag/AgCl wires and 3 M KCl/agar bridges. Electrophysiological data were collected at 5 kHz and filtered at 1 kHz. Data acquisition and analysis were performed using pClamp 9.2 software (Axon Instruments). All recordings were made at room temperature (20–23°C).

In a further assay the target is T1, Kir2.3 (Homo sapiens, UniProt P48050).
T1 construct: expressed in transfected cells
T1 sequence (P48050 1-445): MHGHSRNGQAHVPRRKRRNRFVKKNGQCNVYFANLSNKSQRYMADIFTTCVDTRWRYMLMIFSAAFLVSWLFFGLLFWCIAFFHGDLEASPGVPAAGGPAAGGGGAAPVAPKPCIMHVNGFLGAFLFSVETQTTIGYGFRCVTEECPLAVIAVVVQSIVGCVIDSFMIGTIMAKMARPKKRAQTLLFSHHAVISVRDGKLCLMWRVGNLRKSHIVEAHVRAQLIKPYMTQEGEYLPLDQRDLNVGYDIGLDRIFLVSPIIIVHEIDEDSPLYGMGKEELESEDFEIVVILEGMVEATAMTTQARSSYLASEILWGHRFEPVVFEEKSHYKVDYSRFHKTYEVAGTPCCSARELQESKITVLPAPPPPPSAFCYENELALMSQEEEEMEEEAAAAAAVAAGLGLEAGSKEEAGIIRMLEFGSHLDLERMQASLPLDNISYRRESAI
The experiment in a line: Tl+ flux selectivity assay, Kir2.3. The format is cell-based. Conditions: n = 2 independent experiments in triplicate, read-out: Inhibition of Tl+ flux (IC50). As for the experimental part:
[Worded in the source for another target; used here, by the source, with some conditions changed.] Tl^+ flux assays were performed essentially as described previously, [18], [19]. Briefly, stably transfected T-Rex-HEK-293 cells expressing AeKir1 channels were cultured overnight in 384-well plates (20,000 cells/20 µL/well black-walled, clear-bottomed BD PureCoat amine-coated plates (BD, Bedford, MA) with a plating media containing DMEM, 10% dialyzed FBS and 1 µg/mL tetracycline. The next day, the cell culture medium was replaced with a dye-loading solution containing assay buffer (Hanks Balanced Salt Solution with 20 mM HEPES, pH 7.3), 0.01% (w/v) Pluronic F-127 (Life Technologies, Carlsbad, CA), and 1.2 µM of the thallium-sensitive dye Thallos-AM (TEFlabs, Austin, TX). Following 1 hr incubation at room temperature, the dye-loading solution was washed from the plates and replaced with 20 µL/well of assay buffer. […] Tl^+ flux data were analyzed as previously described, [21], [22] using a combination of Excel (Microsoft Corp, Redmond, WA) with XLfit add-in (IDBS, Guildford, Surrey, UK) and OriginPro (OriginLab, Northampton, MA) software. […] The slope of the fluorescence increase beginning 5 s after Tl^+ addition and ending 15 s after Tl^+ addition was calculated.

The next assay has as its system mosquitoes. Put plainly: Toxicity when applied to the cuticle (topical). The format is in vivo. Conditions: Piermarini, unpublished observations.

AeKir1, sequence (L0EQS9 entry or part of it): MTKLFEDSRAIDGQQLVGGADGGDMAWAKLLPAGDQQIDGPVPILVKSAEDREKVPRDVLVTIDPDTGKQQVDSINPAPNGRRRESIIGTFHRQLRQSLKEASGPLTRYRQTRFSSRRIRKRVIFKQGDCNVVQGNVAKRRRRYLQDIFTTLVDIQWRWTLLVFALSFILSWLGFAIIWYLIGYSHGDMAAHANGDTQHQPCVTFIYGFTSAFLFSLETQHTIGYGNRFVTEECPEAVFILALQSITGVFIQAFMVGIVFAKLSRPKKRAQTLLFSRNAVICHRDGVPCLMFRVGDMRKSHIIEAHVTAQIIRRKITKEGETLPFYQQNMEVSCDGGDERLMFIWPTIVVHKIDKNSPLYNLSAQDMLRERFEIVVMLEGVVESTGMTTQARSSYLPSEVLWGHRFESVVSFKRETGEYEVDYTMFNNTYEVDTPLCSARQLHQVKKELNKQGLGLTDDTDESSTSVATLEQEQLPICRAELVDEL

As a reminder, the IC50 is the concentration that inhibits the measured activity by half. Turning to `CCC(=O)N1c2ccc(S(=O)(=O)Nc3cccc(OC)c3)cc2CC1C` (stereo not shown) [VU625, N-(3-methoxyphenyl)-2-methyl-1-propionylindoline-5-sulfonamide], the “Hill coefficient (nH)” value on AeKir1 (95% CI: 0.8–1.3) came to 1.02. Moreover, the IC50 against AeKir1 (T-REx-HEK293 cells, 95% CI: 75.4–124.2 nM, n = 4–6) was 96.8 nM; on Kir2.3 it was greater than 30000 nM. Besides, the “toxicity when applied to the cuticle” value in the assay on mosquitoes was “lack of topical activity”.
